# Measurements taken from ChEMBL document CHEMBL1201862, “PubChem BioAssay data set” (2004).
# Calls of active or inactive are those of the source.
# Columns and labels:
# [1] = biological target: Photoreceptor-specific nuclear receptor (Homo sapiens, UniProt Q9Y5X4); assay type: functional;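 also: potency for compounds that break the NR2E3 corepressor complex and count as activators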
# [2] = biological target: T1, RNA-binding protein pos-1 (Caenorhabditis elegans, UniProt G5EF15); experiment: inhibitors of POS-1/mex-3 RNA binding, dose response, biochemical, fluorescence polarization (AID 1964);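 also: purified POS-1 fused to maltose binding protein made in E. coli; potency of compounds blocking POS-1 binding to fluorescent RNA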
# T1 sequence (G5EF15 whole entry): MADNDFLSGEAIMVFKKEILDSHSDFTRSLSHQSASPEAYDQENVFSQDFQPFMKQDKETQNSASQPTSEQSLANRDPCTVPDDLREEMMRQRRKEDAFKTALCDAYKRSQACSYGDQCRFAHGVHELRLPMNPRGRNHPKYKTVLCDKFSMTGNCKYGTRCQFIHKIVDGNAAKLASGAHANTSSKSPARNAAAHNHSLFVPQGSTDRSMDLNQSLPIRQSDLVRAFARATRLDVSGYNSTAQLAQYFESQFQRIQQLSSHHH
# [3] = biological target: T2, Zinc finger protein mex-5 (Caenorhabditis elegans, UniProt Q9XUB2); experiment: MEX-5/TCR-2 RNA interaction inhibitors, dose response, biochemical, C. elegans, fluorescence polarization (AID 1960)
# T2 sequence (Q9XUB2 whole entry): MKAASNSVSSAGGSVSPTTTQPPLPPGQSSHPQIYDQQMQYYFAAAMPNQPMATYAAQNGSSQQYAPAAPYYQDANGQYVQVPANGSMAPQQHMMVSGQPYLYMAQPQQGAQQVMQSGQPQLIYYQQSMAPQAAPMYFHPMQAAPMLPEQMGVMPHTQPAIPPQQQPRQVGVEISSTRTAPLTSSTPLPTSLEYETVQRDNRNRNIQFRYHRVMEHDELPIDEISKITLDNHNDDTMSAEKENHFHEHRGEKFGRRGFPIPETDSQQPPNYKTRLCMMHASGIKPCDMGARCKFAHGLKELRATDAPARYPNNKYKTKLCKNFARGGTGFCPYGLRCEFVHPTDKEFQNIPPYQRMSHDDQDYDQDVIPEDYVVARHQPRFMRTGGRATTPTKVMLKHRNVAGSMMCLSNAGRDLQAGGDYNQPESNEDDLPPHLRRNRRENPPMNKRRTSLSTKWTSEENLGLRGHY
# [4] = biological target: Peroxisome proliferator-activated receptor gamma/Nuclear receptor corepressor 2 (Homo sapiens, UniProt P37231+Q9Y618); assay type: functional
# [5] = biological target: T3, Polyadenylate-binding protein 1 (Homo sapiens, UniProt P11940); experiment: PABP1 MLLE–PAM2 interaction inhibitors, dose response, miRNA deadenylation inhibitor project, biochemical, fluorescence polarization, Cy5-PAM2 peptide, secondary (AID 602260); assay type: functional; details: read-out: IC50_Mean
# T3 sequence (P11940 whole entry): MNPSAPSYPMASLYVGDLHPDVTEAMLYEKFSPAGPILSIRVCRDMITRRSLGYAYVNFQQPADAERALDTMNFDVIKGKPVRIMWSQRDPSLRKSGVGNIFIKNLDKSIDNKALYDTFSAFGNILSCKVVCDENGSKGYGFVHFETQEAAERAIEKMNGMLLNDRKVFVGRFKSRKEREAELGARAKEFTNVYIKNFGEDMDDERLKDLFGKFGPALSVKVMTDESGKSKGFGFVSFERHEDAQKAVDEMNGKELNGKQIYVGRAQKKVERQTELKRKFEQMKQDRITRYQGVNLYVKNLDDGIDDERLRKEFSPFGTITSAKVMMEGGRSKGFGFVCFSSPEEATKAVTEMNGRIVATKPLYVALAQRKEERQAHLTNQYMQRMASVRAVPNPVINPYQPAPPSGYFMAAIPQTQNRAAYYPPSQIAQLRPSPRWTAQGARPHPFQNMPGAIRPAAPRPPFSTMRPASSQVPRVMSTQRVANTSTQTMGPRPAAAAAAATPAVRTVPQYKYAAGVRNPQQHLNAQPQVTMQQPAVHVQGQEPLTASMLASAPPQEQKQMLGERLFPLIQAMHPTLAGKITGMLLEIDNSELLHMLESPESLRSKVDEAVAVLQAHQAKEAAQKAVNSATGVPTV
# [6] = biological target: T3, Polyadenylate-binding protein 1; experiment: PABP1 MLLE–PAM2 binding inhibitor potency, dose response, biochemical, fluorescence polarization, FITC-PAM2 peptide (AID 602259); assay type: functional; details: read-out: IC50_Mean
# [7] = polyadenylation inhibitors in yeast reporter, dose response, luminescence, S. cerevisiae SKY197-pL101 (AID 2525); assay type: functional, cell-based
# [8] = tested on: Streptococcus sp. 'group A'; experiment: growth inhibition of control SK(-) GAS strain, dose response, counter-screen for streptokinase expression inhibitor project, luminescence, kanamycin, BacTiterGlo, confirmation (AID 1900); assay type: functional, organism-based
# Streptokinase A = biological target: T4, Streptokinase A (Streptococcus pyogenes serotype M1, UniProt P10520); experiment: S. pyogenes streptokinase expression inhibitors, potency, dose response, plasminogen activation absorbance, OD405 (AID 1914); assay type: functional, Streptococcus pyogenes M1 GAS;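 also: secreted streptokinase activity via plasminogen activation per viability signal from cell pellet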
# T4 sequence (P10520 whole entry): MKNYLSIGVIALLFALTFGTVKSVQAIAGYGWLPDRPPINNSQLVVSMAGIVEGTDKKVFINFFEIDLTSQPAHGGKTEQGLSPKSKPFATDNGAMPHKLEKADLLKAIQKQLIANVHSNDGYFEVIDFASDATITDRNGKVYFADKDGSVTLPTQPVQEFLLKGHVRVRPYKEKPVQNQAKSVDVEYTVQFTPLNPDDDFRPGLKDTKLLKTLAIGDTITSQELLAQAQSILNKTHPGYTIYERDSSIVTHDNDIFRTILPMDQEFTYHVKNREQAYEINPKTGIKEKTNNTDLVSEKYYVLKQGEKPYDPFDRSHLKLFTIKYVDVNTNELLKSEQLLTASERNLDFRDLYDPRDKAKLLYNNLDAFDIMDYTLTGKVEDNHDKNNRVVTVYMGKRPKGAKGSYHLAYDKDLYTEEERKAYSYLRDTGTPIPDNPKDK
# [9] = Luminescence Cell-Based Dose Confirmation HTS to Identify Inhibitors of Polyadenylation.; assay type: functional
# Streptococcus = experiment: Group A Streptococcus viability loss, dose response, counter-screen for streptokinase expression inhibitor project, luminescence, BacTiterGlo (AID 1915); assay type: functional, organism-based;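 also: potency for reduction of bacterial viability or growth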
# [10] = biological target: Multidrug resistance protein CDR1 (Candida albicans, UniProt P43071); experiment: CaCDR1 efflux pump inhibitors in yeast, dose response, S. cerevisiae AD1-8u, singleplex, Cherry Pick1 hits (AID 588606); assay type: functional
# Multidrug resistance protein CDR1, sequence (P43071 whole entry, looked up): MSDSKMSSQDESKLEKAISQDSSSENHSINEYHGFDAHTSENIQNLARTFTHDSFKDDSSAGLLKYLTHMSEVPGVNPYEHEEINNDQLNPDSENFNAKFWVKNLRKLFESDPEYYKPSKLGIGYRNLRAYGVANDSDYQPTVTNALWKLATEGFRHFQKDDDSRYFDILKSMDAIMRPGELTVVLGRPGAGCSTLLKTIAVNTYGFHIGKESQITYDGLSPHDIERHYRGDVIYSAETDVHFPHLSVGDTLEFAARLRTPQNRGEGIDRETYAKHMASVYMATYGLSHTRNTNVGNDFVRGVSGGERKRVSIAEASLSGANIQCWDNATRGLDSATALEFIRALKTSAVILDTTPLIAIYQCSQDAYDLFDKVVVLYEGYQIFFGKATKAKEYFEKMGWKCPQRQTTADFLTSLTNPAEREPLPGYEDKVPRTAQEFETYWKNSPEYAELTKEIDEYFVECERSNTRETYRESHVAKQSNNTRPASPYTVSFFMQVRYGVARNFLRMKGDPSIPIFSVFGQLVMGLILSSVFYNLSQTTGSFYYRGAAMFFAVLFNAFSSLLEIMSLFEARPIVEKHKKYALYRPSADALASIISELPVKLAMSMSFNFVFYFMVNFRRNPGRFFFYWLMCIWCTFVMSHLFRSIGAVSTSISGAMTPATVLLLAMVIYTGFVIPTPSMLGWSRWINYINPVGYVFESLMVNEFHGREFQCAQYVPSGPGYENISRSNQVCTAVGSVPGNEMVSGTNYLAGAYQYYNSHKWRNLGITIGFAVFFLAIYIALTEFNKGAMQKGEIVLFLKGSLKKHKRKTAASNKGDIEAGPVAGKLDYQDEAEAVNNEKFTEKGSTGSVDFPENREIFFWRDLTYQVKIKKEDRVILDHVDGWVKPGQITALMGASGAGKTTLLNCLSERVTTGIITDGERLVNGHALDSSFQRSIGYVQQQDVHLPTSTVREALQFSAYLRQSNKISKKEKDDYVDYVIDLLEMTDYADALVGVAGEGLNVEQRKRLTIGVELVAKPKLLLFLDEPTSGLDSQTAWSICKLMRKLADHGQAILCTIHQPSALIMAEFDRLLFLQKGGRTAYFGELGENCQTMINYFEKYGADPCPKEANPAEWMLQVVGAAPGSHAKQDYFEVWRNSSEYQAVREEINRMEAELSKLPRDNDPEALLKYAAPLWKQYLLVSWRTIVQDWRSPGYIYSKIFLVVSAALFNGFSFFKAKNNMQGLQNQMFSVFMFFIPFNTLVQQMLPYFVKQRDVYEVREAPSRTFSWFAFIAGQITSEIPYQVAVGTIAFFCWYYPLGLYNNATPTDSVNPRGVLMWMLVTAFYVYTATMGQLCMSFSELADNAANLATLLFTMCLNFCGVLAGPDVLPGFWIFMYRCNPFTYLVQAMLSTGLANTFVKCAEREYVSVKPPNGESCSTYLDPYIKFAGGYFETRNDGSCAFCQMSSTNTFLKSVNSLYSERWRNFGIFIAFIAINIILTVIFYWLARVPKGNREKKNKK
# [11] = biological target: Lysosomal acid glucosylceramidase (Homo sapiens, UniProt P04062); experiment: Dose response cell-based high throughput screening assay to identify enhancers of beta-glucosidase activity. [Related pubchem assays: 784 ]; assay type: functional
# Lysosomal acid glucosylceramidase, sequence (P04062 whole entry): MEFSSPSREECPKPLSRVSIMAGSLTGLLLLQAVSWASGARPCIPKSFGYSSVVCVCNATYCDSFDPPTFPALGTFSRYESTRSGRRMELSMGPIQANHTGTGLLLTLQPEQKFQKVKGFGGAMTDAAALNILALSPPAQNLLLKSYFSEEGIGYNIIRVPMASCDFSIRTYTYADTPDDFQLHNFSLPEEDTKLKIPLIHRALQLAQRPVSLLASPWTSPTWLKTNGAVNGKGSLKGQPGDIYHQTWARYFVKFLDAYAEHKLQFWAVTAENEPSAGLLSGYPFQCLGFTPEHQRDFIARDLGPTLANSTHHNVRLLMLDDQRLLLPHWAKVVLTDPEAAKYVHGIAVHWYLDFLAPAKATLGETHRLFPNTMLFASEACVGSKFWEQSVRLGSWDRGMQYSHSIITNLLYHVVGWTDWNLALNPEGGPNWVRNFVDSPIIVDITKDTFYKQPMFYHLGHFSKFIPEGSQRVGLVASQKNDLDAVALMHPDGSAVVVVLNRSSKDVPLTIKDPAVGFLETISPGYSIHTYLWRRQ
# Cytochrome P450 2D6 = Cytochrome P450 2D6 (Homo sapiens, UniProt P10635); experiment: qHTS Assay for Inhibitors and Substrates of Cytochrome P450 2D6. [Related pubchem assays: 410 ]; assay type: ADME; details: read-out: Potency
# Cytochrome P450 2D6, sequence (P10635 whole entry): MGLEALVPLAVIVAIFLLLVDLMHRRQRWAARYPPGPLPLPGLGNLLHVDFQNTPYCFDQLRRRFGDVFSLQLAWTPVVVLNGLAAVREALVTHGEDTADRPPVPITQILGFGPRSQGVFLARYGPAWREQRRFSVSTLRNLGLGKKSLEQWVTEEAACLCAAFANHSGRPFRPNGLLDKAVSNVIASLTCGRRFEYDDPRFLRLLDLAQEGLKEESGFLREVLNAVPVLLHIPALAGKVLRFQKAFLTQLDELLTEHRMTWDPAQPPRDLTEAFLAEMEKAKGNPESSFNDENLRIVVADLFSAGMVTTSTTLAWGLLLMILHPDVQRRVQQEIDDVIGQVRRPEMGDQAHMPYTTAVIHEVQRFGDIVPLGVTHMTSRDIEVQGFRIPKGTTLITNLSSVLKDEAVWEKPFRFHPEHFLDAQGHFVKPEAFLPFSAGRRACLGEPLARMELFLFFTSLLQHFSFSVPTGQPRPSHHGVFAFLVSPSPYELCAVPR
# Photoreceptor-specific nuclear receptor, sequence (Q9Y5X4 whole entry, the tested form may be a part): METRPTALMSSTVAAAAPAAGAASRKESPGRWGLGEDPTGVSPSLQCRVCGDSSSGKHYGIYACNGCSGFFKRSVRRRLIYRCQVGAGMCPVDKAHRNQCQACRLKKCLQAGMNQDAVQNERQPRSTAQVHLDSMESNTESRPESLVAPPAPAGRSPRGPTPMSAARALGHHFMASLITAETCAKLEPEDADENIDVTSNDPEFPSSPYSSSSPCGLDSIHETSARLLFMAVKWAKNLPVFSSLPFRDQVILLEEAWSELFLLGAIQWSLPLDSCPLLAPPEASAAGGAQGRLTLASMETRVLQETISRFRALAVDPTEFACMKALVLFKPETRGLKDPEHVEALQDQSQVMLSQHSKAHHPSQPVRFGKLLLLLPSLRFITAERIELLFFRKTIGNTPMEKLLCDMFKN
structure (smiles),measurement,setting,value
COC(=O)c1cc2n3ccccc3c(C)c(-c3ccccc3)c-2c1C(=O)OC,IC50,[1],186 nM (active)
same,EC50,[2],23.6 µM (active)
same,EC50,[3],16.6 µM (active)
same,IC50,[4],196 nM (active)
same,IC50,[5],> 66 µM (inactive)
same,IC50,[6],54.7 µM (inactive)
COc1cc(/C=C2/CC/C(=C/c3ccc(O)c(OC)c3)C2=O)ccc1O,EC50,[7],173 µM (active)
same,EC50,[8],15.8 µM (active)
same,EC50,Streptokinase A,> 150 µM (not active)
same,EC50,[9],6.57 µM (active)
same,EC50,Streptococcus,76.7 µM (active)
same,EC50,[10],27.1 µM (active)
CC(=O)N1CCc2cc(Br)cc(S(=O)(=O)NCCN3CCCCC3C)c21 (centres undefined),EC50,[11],> 50 µM (not active)
COc1ccccc1CNc1cc(-c2ccccc2C(F)(F)F)ncn1,AC50,Cytochrome P450 2D6,39.8 µM (inconclusive)
